Values after ≈ are worked out from the molar mass of the structure shown. Active and inactive are the calls of the source. No cut-off for these calls is given here.
Columns and labels:
in vitro = details: PAMPA
Description: Permeability of the compound by PAMPA

[1] = target: Muscarinic acetylcholine receptor M3 (Homo sapiens, UniProt P20309); experiment: Inhibition of M3 (unknown origin) at 10 uM relative to control
[2] = target: T1, Muscarinic acetylcholine receptor M4 (Homo sapiens, UniProt P08173); experiment: Inhibition of M4 (unknown origin) at 10 uM relative to control
T1 sequence (P08173 whole entry): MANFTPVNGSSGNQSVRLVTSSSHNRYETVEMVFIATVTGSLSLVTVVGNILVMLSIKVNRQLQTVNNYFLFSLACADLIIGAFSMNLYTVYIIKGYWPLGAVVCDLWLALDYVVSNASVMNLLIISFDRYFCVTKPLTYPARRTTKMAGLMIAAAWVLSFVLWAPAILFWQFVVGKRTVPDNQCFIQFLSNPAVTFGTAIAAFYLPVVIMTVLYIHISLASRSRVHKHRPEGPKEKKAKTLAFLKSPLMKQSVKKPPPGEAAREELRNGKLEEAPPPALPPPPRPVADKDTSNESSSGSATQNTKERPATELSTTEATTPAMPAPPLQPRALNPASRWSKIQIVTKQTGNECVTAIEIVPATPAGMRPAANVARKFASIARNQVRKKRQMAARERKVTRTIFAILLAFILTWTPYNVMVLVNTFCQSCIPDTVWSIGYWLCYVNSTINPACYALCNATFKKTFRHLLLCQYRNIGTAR

[3] = Aqueous solubility of compound; format: physicochemical; details: buffer
[4] = Half life in rat liver microsomes at 1 uM measured up to 60 mins in presence of NADPH generating system; details: 1 h
[5] = target: T2, Muscarinic acetylcholine receptor M5 (Homo sapiens, UniProt P08912); experiment: Inhibition of M5 (unknown origin) at 10 uM relative to control
T2 sequence (P08912 whole entry): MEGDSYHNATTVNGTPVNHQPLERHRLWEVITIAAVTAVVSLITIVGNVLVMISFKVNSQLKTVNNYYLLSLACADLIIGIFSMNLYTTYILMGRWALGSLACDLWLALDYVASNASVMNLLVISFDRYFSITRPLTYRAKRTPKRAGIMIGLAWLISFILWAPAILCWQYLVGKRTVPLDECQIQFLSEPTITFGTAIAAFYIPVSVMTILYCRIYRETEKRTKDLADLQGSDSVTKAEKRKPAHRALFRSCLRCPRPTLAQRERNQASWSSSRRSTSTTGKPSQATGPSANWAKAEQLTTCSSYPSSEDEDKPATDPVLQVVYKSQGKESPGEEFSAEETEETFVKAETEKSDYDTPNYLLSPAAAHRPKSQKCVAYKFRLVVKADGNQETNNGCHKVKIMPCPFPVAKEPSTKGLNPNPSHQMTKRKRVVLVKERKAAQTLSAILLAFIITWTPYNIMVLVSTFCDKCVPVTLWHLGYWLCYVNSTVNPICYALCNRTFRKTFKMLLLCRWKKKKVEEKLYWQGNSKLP

HeLa [6] = experiment: Induction of mitotic arrest in human HeLa cells assessed as rounded cells with apoptosis at 100 uM measured after 12 hrs by DAPI staining based phase contrast microscopic analysis; format: functional, cell-based
HeLa [7] = experiment: Induction of mitotic arrest in human HeLa cells assessed as apperance of aberrant chromosomal morphology at 100 uM measured after 12 hrs by DAPI staining based phase contrast microscopic analysis; format: functional, cell-based
[8] = Half life in rat cytosol; format: ADME, subcellular
[9] = Half life in human cytosol; format: ADME, subcellular
[10] = Half life in mouse cytosol; format: ADME, subcellular
[11] = target: T3, Serine/threonine-protein kinase PLK1 (Homo sapiens, UniProt P53350); experiment: Inhibition of biotin-Ahx-CETFDPPLHSpTAI-NH2 binding to recombinant human full-length HA-EGFP-tagged Plk1 PBD expressed in HEK293A cells preincubated for 30 mins followed by biotin-Ahx-CETFDPPLHSpTAI-NH2 addition and measured after 1 hr by 3,3',5,5'-tetramethylbenzidine substrate based ELISA; format: cell-based, HEK293-A
T3 sequence (P53350 whole entry): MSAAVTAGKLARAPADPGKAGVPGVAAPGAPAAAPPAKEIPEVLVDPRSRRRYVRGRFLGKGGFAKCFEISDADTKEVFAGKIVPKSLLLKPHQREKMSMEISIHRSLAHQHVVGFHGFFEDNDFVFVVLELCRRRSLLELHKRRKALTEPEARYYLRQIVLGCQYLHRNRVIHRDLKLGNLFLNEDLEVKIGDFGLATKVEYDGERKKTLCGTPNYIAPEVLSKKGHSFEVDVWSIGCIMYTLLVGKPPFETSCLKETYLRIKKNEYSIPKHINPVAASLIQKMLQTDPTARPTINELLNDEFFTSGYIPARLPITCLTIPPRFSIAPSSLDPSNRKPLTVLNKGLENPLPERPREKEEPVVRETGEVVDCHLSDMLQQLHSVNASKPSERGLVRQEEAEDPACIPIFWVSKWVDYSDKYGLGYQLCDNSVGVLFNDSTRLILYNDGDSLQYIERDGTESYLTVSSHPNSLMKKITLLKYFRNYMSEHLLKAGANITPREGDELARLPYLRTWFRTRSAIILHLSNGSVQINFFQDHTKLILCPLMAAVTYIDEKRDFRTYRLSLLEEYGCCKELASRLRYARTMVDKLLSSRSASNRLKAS

[12] = target: Serine/threonine-protein kinase PLK3 (Homo sapiens) (UniProt Q9H4B4); experiment: Inhibition of FITC-Ahx-DPPLHSpTAI-NH2 binding to Plk3 PBD (unknown origin) expressed in bacterial expression system measured after 30 mins by fluorescence polarization assay
Sequence of Serine/threonine-protein kinase PLK3 (Homo sapiens) (Q9H4B4 whole entry, looked up): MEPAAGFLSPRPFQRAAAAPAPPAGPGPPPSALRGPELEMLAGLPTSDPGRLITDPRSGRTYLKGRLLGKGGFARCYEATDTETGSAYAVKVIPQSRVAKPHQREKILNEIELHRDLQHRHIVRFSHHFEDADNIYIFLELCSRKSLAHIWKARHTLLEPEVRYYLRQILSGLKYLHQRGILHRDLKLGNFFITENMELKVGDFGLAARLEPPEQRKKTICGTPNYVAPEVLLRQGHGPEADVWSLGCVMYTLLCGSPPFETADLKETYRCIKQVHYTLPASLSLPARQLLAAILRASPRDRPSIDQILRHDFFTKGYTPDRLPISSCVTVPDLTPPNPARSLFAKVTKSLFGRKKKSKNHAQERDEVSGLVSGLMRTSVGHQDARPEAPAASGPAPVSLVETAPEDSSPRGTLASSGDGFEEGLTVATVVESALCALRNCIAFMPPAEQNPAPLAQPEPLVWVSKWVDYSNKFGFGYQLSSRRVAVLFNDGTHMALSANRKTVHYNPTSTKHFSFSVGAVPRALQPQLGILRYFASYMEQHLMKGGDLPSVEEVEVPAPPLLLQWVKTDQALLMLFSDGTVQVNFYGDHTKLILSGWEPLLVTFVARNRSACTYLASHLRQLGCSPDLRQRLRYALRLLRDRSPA

[13] = target: Serine/threonine-protein kinase PLK2 (Homo sapiens, UniProt Q9NYY3); experiment: Inhibition of FITC-Ahx-DPPLHSpTAI-NH2 binding to Plk2 PBD (unknown origin) expressed in bacterial expression system measured after 30 mins by fluorescence polarization assay; details: 0.5 h
Sequence of Serine/threonine-protein kinase PLK2 (Q9NYY3 whole entry): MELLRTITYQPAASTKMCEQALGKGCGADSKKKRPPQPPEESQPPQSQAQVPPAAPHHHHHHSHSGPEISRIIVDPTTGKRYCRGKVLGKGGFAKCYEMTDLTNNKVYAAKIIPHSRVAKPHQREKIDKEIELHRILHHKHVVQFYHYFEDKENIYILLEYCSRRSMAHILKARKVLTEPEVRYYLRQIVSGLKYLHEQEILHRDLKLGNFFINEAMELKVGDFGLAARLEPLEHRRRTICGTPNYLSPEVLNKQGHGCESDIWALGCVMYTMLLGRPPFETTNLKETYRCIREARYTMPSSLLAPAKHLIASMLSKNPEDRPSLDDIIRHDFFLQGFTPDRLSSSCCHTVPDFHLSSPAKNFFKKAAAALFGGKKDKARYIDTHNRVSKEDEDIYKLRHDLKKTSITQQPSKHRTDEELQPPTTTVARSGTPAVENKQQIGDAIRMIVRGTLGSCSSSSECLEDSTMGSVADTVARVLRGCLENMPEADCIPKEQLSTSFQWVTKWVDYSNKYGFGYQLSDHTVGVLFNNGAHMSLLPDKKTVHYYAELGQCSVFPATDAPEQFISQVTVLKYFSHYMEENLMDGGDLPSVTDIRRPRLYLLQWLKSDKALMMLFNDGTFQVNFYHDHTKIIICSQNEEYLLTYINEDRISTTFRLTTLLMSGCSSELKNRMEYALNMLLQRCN

[14] = PAMPA
Description: Permeability of the compound by PAMPA

[15] = target: T3, Serine/threonine-protein kinase PLK1; experiment: Inhibition of Plk1 PBD in human HeLa cells assessed as reduction in plk1 localization to kinetochores at 100 uM measured after 12 hrs by immunostaining based assay; format: cell-based
[16] = Drug metabolism in C57BL/6 mouse assessed as hydroxylation in serum at 20 mg/kg, ip measured after 15 mins by UPLC-ESI-QTOFMS analysis; format: ADME, organism-based; details: in vivo
[17] = Toxicity in C57BL/6 mouse at 20 mg/kg, ip; format: organism-based; details: in vivo
HeLa [18] = experiment: Antiproliferative activity against human HeLa cells assessed as reduction in cell population at 100 uM measured after 3 days by DAPI staining based phase contrast microscopic analysis relative to control; format: functional; design: scale not given: the % may be the effect or the level left; details: time 3 day
HeLa [19] = experiment: Induction of mitotic arrest in human HeLa cells assessed as abnormal spindle morphology at 100 uM measured after 12 hrs by DAPI staining based immunoassay; format: functional, cell-based
[20] = target: T3, Serine/threonine-protein kinase PLK1; experiment: Inhibition of Plk1 PBD in human HeLa cells assessed as reduction in plk1 localization to centrosomes at 100 uM measured after 12 hrs by immunostaining based assay; format: cell-based
[21] = Drug metabolism in C57BL/6 mouse assessed as demethylation in serum at 20 mg/kg, ip measured after 15 to 240 mins by UPLC-ESI-QTOFMS analysis; format: ADME, organism-based; details: in vivo, time 15-240 min

Sequence of Muscarinic acetylcholine receptor M3 (P20309 whole entry): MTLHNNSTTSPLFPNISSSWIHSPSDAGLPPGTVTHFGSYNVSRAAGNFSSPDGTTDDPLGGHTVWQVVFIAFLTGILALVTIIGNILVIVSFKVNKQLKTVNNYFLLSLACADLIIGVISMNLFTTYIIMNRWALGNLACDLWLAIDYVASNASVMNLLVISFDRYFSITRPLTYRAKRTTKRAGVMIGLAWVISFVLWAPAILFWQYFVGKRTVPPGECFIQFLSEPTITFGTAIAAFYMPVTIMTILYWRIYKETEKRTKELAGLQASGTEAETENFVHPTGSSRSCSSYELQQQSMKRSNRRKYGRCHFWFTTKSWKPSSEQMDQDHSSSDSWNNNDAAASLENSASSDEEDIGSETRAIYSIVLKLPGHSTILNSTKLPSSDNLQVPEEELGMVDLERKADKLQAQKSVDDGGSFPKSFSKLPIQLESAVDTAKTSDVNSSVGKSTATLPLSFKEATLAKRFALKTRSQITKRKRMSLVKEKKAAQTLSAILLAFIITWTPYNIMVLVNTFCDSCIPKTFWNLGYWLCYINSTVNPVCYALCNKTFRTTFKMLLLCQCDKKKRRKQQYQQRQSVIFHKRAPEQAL

Work on `NCCCn1c(=O)c2cc(F)ccc2n2c(=S)[nH]nc12` yielded a Papp (in vitro) of 16.8 ×10⁻⁶ cm/s, an inhibition at 10 µM [1] of 100% and an inhibition at 10 µM [2] of 73%. For the same molecule, the solubility [3] was 27 µg/mL (≈ 92 µM), the t1/2 [4] was greater than 30 min and the inhibition at 10 µM [5] was 84%.

For `CCCn1c(=O)c2cccc(F)c2n2c(SC)nnc12`, the Activity (HeLa [6]) was “Active” and the Activity (HeLa [7]) was “Active”.

In the case of `CCCn1c(=O)c2cc(F)ccc2n2c(SC)nnc12`, the t1/2 [8] is reported as “<= 120 min”, the Activity (HeLa [6]) is reported as “Active” and the t1/2 [9] is reported as “<= 120 min”. For the same molecule, the t1/2 [10] was “<= 120 min” and the Activity (HeLa [7]) was “Active”.

For `CCCCn1c(=O)c2ccccc2n2c(S)nnc12`, the Papp (in vitro) was 77.5 ×10⁻⁶ cm/s, the IC50 [11] was 1030 nM and the solubility [3] was 8.5 µg/mL (≈ 31 µM). The t1/2 [4] was greater than 30 min.

With `CCOCCCn1c(=O)c2ccccc2n2c(S)nnc12` the IC50 [11] was 1680 nM and the solubility [3] was 15.5 µg/mL (≈ 50.9 µM).

With `COCCCn1c(=O)c2ccccc2n2c(S)nnc12` the IC50 [11] was 1750 nM and the solubility [3] was 31.2 µg/mL (≈ 107 µM).

In the case of `CC(C)CCn1c(=O)c2ccccc2n2c(=S)[nH]nc12`, the IC50 [11] is reported as 1730 nM and the solubility [3] is reported as 8 µg/mL (≈ 27.7 µM).

With `CC(=O)N1CCC[C@H]1C(=O)N[C@@H](CC(C)C)C(=O)N[C@@H](Cc1cnc[nH]1)C(=O)N[C@@H](CO)C(=O)N[C@H](C(=O)O)[C@@H](C)O` the inhibition [12] was “inactive”.

In the case of `O=c1c2cc(F)ccc2n2c(=S)[nH]nc2n1CC1CC1`, the Papp (in vitro) is reported as 46 ×10⁻⁶ cm/s, the inhibition [12] is reported as “inactive” and the solubility [3] is reported as 16.2 µg/mL (≈ 55.8 µM). The t1/2 [4] was greater than 30 min and the “inhibition (INH)” value [13] was “Not Active”.

For `CC(=O)N1CCC[C@H]1C(=O)N[C@@H](CC(C)C)C(=O)N[C@@H](Cc1cnc[nH]1)C(=O)N[C@@H](CO)C(=O)N[C@H](C(=O)O)[C@@H](C)OP(=O)(O)O`, the inhibition [12] was “inactive”.

Work on `Cc1cccc(-n2c(=O)c3ccccc3n3c(S)nnc23)c1C` yielded an IC50 [11] of 1850 nM.

For `C[C@H]1C[C@@H]1n1c(=O)c2cc(F)ccc2n2c(=S)[nH]nc12` (relative stereo), the solubility [3] was 13.2 µg/mL (≈ 45.5 µM), the t1/2 [4] was greater than 30 min and the permeability [14] was 188 10^-6 cm/s.

For `CCCn1c(=O)c2ccccc2n2c(SC)nnc12`, the inhibition [15] was 50%, the IC50 [11] was greater than 50000 nM and the Drug metabolism [16] was “Metabolite_Detected”. The t1/2 [8] was “<= 120 min”, the Activity (HeLa [6]) was “Active” and the t1/2 [9] was “<= 120 min”. For the same molecule, the Activity [17] was “Non-Toxic”, the Activity (HeLa [18]) was 50% and the Activity (HeLa [19]) was “Active”. For the same molecule, the t1/2 [10] was “<= 120 min”, the inhibition [20] was 20% and the Activity (HeLa [7]) was “Active”. For the same molecule, the Drug metabolism [21] was “Metabolite_Detected”.

`CCCn1c(=O)c2ccccc2n2c(=S)n(CC(=O)c3ccccc3)nc12` gave an IC50 [11] greater than 50000 nM.

In the case of `CCCCCn1c(=O)c2ccccc2n2c(S)nnc12`, the IC50 [11] is reported as 1970 nM and the solubility [3] is reported as 4.2 µg/mL (≈ 14.6 µM).

In the case of `C=CCn1c(=O)c2ccccc2n2c(S)nnc12`, the IC50 [11] is reported as 1310 nM and the solubility [3] is reported as 19.4 µg/mL (≈ 75.1 µM).

Reference: ChEMBL document CHEMBL4673282, “Identification of a New Heterocyclic Scaffold for Inhibitors of the Polo-Box Domain of Polo-like Kinase 1” (J Med Chem, 2020)
